“Also recorded” adds a separate entry of the source. Where a SMILES comes first, the peptide text is derived from it. [ ]: non-standard residue; d: D form. The star is where a group is joined. Phe(4-NH2) = Nc1ccc(C[C@H](N)C(=O)O)cc1; Pentanoyl = CCCCC(=O)*
Key:
[1] = test system: P. aeruginosa ATCC 27853; assay: Broth microdilution MIC, reference strain; assay type: cell-based, Pseudomonas aeruginosa
Description: (§1) Staphylococcus aureus ATCC 25923, Pseudomonas aeruginosa ATCC 27853 and Klebsiella pneumoniae ATCC BAA-1705 (carbapenemase producer) were obtained from the American Type Culture Collection (Rockville, MD).
(§2) Identification was performed by sub-culturing on Tryptic Soy Agar (TSA, Becton Dickinson) and by biochemical characterisation using the Vitek II system (Biomerieux). The antimicrobial susceptibility testing of all isolates was determined using Vitek II system and results were interpreted according to European Committee on Antimicrobial Susceptibility Testing (EUCAST version 9.0, 2019). P. aeruginosa was cultured in Brain Heart Infusion broth (BHI, OXOID), S. aureus and K. pneumoniae were cultured in Tryptic Soya broth (TSB, OXOID), under aerobic conditions at 37 °C, for 24 h on an orbital shaker at 200 rpm.
(§3) Minimal inhibitory concentrations (MIC) of all the peptides were determined in Mueller–Hinton medium by the broth microdilution assay, following the procedure already described[22]^,[34]. The compounds were added to bacterial suspension in each well yielding a final cell concentration of 1 × 10^6 CFU/ml and a final compound concentration ranging from 0.78 to 100 µM. Negative control wells were set to contain bacteria in Mueller–Hinton broth plus the amount of vehicle (ethanol) used to dilute each compound. Positive controls included vancomycin (2 µg/ml), tobramycin (4 µg/ml), gentamycin (4 µg/ml), and imipenem (8 µg/ml).

[2] = test system: K. pneumoniae ATCC BAA-1705; assay: Broth microdilution MIC, reference strain; assay type: cell-based, Klebsiella pneumoniae
Description: as §1, §2, §3

[3] = test system: S. aureus ATCC 25923; assay: microbe, parasite or virus in culture; conditions: ATCC 25923
Description: as §1, §2, §3

[4] = test system: KpCR1; assay: microbe, parasite or virus in culture; conditions: carbapenem-resistant clinical isolate
Description: (§4) Clinical strains of P. aeruginosa (Pa1, Pa2 and Pa3), K. pneumoniae (KpCR1, KpCR2 and KpCR3), and S. aureus (Sa1, Sa2 and Sa3) were isolated from bloodstream or pulmonary infections, and belong to a collection of bacterial strains established between 2010 and 2018 at the Department of Molecular Medicine and Medical Biotechnologies (University Federico II, Naples) for research use.
as §2, §3

[5] = test system: KpCR2; assay: microbe, parasite or virus in culture; conditions: carbapenem-resistant clinical isolate
Description: as §4, §2, §3

[6] = test system: KpCR3; assay: microbe, parasite or virus in culture; conditions: carbapenem-resistant clinical isolate
Description: as §4, §2, §3

[7] = test system: Pa1; assay: microbe, parasite or virus in culture; conditions: multidrug resistant clinical isolate
Description: as §4, §2, §3

[8] = test system: Pa2; assay: microbe, parasite or virus in culture; conditions: multidrug resistant clinical isolate
Description: as §4, §2, §3

[9] = test system: Pa3; assay: microbe, parasite or virus in culture; conditions: multidrug resistant clinical isolate
Description: as §4, §2, §3

[10] = test system: Sa1; assay: microbe, parasite or virus in culture
Description: as §4, §2, §3

[11] = test system: Sa2; assay: microbe, parasite or virus in culture
Description: as §4, §2, §3

[12] = test system: Sa3; assay: microbe, parasite or virus in culture; conditions: 24 h
Description: as §4, §2, §3

[13] = 90% human serum, 37 ± 1 °C, 200 µM
Description: Human serum from human male AB plasma was acquired by Sigma-Aldrich-Merk. Water and MeCN were obtained from commercial suppliers and used without further purification. Analytical RP-UHPLC was performed on a Shimadzu Nexera equipped with a Phenomenex Kinetex column (C18, 4.6 mm x 150 mm, […]) and H2O (0.1% TFA) and MeCN (0.1% TFA) as eluents.
Serum stability was evaluated by modification of elsewhere described methods[37]^,[38]. In particular, the human serum was allocated into a 1.5 ml eppendorf tube and temperature equilibrated at 37 ± 1 °C for 15 min. Peptides 1B, and C were dissolved in sterile water to prepare a stock solution of 2 mM and then mixed with the human serum to make a final concentration of 0.2 mM (90% serum). The resulting reaction solution was incubated at 37 ± 1 °C. Aliquots of the reaction solutions were taken at known time intervals (0, 15, 45, 75, 90, 120 min), subjected to serum proteins precipitation by addition of MeCN (double volume respect to the aliquot). The cloudy reaction sample was cooled (4 °C) for 15 min and then spun at 13000 rpm for 10 min to pellet the precipitated serum proteins. The supernatant was then analysed by RP-UHPLC by using a linear elution gradient from 10 to 90% MeCN (0.1% TFA) in water (0.1% TFA) over 20 min. A flow rate of 1 ml/min was used, absorbance was detected at 220 nm, and the analysis was performed at room temperature.

[14] = Critical aggregation concentration, Nile red fluorescence; assay type: physicochemical; conditions: aqueous solution, pH 7, Nile red, 1–200 µM peptide
Description: The solvatochromic fluorescent probe Nile red is widely used to determine the CAC of self-assembling peptides. […] Since Nile red is poorly soluble in water, there is a large preference to partition aggregates, which offer hydrophobic binding sites. Initially, 1 mM methanolic Nile red was prepared. Then, the methanolic Nile red was diluted with water in order to have a final concentration of 500 nM (solution A). The peptides 1B, 2B, 3B, C, were prepared as follows[39]: peptide stock solutions (0.4 mM) were prepared by dissolving the single peptides in water (1B, C) or tetrahydrofuran (3B, 2B) and sonicating for 15 min. Different aliquots were taken to prepare solutions of each peptide at different concentrations (1, 5, 10, 15, 20, 30, 50, 100 and 200 µM). Then, all solutions were diluted with water, sonicated for 15 min and freeze-dried. Finally, the peptide powders were dissolved with the right volume of solution A and allowed to stand in the dark place for 1 h before measurement. Emission spectra for each solution were measured by a Cary Eclipse Varian spectrometer. Spectra were taken between 570 and 700 nm at a slit width of 5 nm, using an excitation wavelength of 550 nm and a 10 nm slit width. The measurements were performed in triplicate. The data were analysed by plotting the maximum emission fluorescence corresponding wavelength (y) as a function of peptide concentration (x) and fitting with the sigmoidal Boltzmann equation: y=A1+A2/1+e^(x−x0/Δx)+A2 where the variables A1 and A2 correspond to the upper and lower limits of the sigmoid, x0 is the inflection point of the sigmoid and Δx is the parameter, which characterises the steepness of the function. The sigmoidal plot allows calculating the CAC value at x0.

[15] = 100% growth inhibition after 16–18 h at 37 °C

Row | Structure (SMILES) | Antimicrobial activity (MIC) P. aeruginosa ATCC 27853 [1, 15] | Antimicrobial activity (MIC) K. pneumoniae ATCC BAA-1705 [2, 15] | Antimicrobial activity (MIC) S. aureus ATCC 25923 [3] | Antimicrobial activity (MIC) KpCR1 [4] | Antimicrobial activity (MIC) KpCR2 [5] | Antimicrobial activity (MIC) KpCR3 [6] | Antimicrobial activity (MIC) Pa1 [7] | Antimicrobial activity (MIC) Pa2 [8] | Antimicrobial activity (MIC) Pa3 [9] | Antimicrobial activity (MIC) Sa1 ([10]; MRSA clinical isolate) | Antimicrobial activity (MIC) Sa2 ([11]; MRSA clinical isolate) | Antimicrobial activity (MIC) Sa3 [12] | proteolytic stability in human serum (in words) ([13]; within 120 min) | CAC (critical aggregation concentration) [14] | Antimicrobial activity (MIC) P. aeruginosa ATCC 27853 ([1]; ATCC 27853) | Antimicrobial activity (MIC) K. pneumoniae ATCC BAA-1705 ([2]; ATCC BAA-1705) | Antimicrobial activity (MIC) Sa1 ([10]; 24 h) | Antimicrobial activity (MIC) Sa2 ([11]; 24 h) | start of partial degradation in human serum [13] | time peptide is stable in human serum [13]
1 | CC[C@H](C)[C@H](NC(=O)[C@H](CCCNC(=N)N)NC(=O)[C@@H](CCCCN)NC(=O)[C@@H](CC(C)C)NC(=O)[C@H](Cc1ccccc1)NC(=O)[C@H](CCCCN)NC(=O)[C@H](CO)NC(=O)[C@H](Cc1ccccc1)NC(=O)[C@H](Cc1c[nH]c2ccccc12)NC(=O)[C@@H]1CCCN1C(=O)[C@@H](NC(=O)[C@@H](N)Cc1ccccc1)C(C)C)C(=O)N[C@@H](CC(C)C)C(N)=O [Compound 1B, H-Phe-Val-Pro-Trp-Phe-Ser-Lys-Phe-DLeu-DLys-Arg-Ile-Leu-NH2] (H-FVPWFSKF[dL][dK]RIL-NH2) | 12.5 µM | 12.5 µM | 6.25 µM | 12.5 µM | 12.5 µM | 12.5 µM | 12.5 µM | 12.5 µM | 12.5 µM | 12.5 µM | 12.5 µM | 6.25 µM | rapidly degraded | unable to aggregate under the range of concentrations investigated; also recorded: not aggregated at the concentration tested | – | – | – | – | – | –
2 | CCCCC(=O)Nc1ccc(C[C@H](N)C(=O)N[C@H](C(=O)N2CCC[C@H]2C(=O)N[C@@H](Cc2c[nH]c3ccccc23)C(=O)N[C@@H](Cc2ccccc2)C(=O)N[C@@H](CO)C(=O)N[C@@H](CCCCN)C(=O)N[C@@H](Cc2ccccc2)C(=O)N[C@H](CC(C)C)C(=O)N[C@H](CCCCN)C(=O)N[C@@H](CCCNC(=N)N)C(=O)N[C@H](C(=O)N[C@@H](CC(C)C)C(N)=O)[C@@H](C)CC)C(C)C)cc1 [C, H-Phe(4-NHCO(CH2)3CH3)-Val-Pro-Trp-Phe-Ser-Lys-Phe-DLeu-DLys-Arg-Ile- Leu-NH2] (H-[Phe(4-NH2)](Pentanoyl)VPWFSKF[dL][dK]RIL-NH2) | – | – | 6.25 µM | 12.5 µM | 12.5 µM | 12.5 µM | 25 µM | 25 µM | 25 µM | – | – | 12.5 µM | – | 39.5 µM | 25 µM | 6.25 µM | 12.5 µM | 12.5 µM | 80 min | up to 1 h
